# From patent publication US20220339143A1, “TAK-925 FOR USE IN TREATING NARCOLEPSY” (Takeda Pharmaceutical Company Limited, priority 2019, published 2022)
# Where two headings read alike, the source gives them in different places.
# Assay: Single dose PK in healthy subjects (Cohorts 1, 2, S1 and S2), plasma
# Format: in vivo, human
# Conditions: human, plasma
# Procedure: This study investigates (i) the safety and tolerability of Compound A (methyl (2R,3S)-3-((methylsulfonyl)amino)-2-(((cis-4-phenylcyclohexyl)oxy)methyl)piperidine-1-carboxylate) when a single dose given as a 9 hour continuous IV infusion is administered to healthy adults, healthy elderly subjects and patients with narcolepsy type 1 (NT1); (ii) the pharmacokinetics of Compound A when a single dose given as a 9 hour continuous IV infusion is administered to healthy adults, healthy elderly subjects and patients with narcolepsy type 1; and (iii) the pharmacodynamics (PD) effects of Compound A, primarily by evaluation of the sleep latency on MWT when a single dose given as a 9 hour continuous IV infusion is administered to patients with narcolepsy type 1.
# Pharmacokinetics: Concentrations of Compound A in plasma, and CSF, and pharmacokinetics parameters.
# On average, the time to reach the plateau appeared to be approximately 3 to 4 hours after the start of infusion. […] After switching off the IV infusion, Compound A plasma concentrations declined rapidly and in a biphasic manner with a mean terminal disposition phase t1/2z ranging approximately from 3.4 to 5.1 hours across all doses. […] Table 5 provides a summary of plasma concentrations of Compound A after a single IV infusion in healthy subjects. Table 6 provides a summary of pharmacokinetic parameters of Compound A after a single IV infusion in healthy subjects.
# [1] = intravenous, 180 mg, read-out: Plasma concentration, Maximum
# [2] = intravenous, 180 mg, read-out: Plasma concentration, Mean
# [3] = intravenous, 180 mg, read-out: Plasma concentration, Median
# [4] = intravenous, 180 mg, read-out: Plasma concentration, Minimum
# [5] = intravenous, 180 mg, read-out: Plasma concentration, Q1
# [6] = intravenous, 180 mg, read-out: Plasma concentration, Q3
# [7] = intravenous, 240 mg, read-out: Plasma concentration, Mean
# [8] = intravenous, 240 mg, read-out: Plasma concentration, Minimum
# [9] = intravenous, 240 mg, read-out: Plasma concentration, Q1
smiles,measurement,setting,value
"COC(=O)N1CCC[C@H](NS(C)(=O)=O)[C@@H]1CO[C@H]1CC[C@@H](c2ccccc2)CC1 [Compound A, methyl (2R,3S)-3-((methylsulfonyl)amino)-2-(((cis-4-phenylcyclohexyl)oxy)methyl)piperidine-1-carboxylate]",concentration at 1 h,[1],265 ng/mL
same,concentration at 1 h,[2],216 ng/mL
same,concentration at 1 hr,[3],215 ng/mL
same,concentration at 1 hr,[4],173 ng/mL
same,concentration at 1 hr,[5],201 ng/mL
same,concentration at 1 h,[6],229 ng/mL
same,concentration at 1.5 h,[1],304 ng/mL
same,concentration at 1.5 h,[2],255 ng/mL
same,concentration at 1.5 hr,[3],242 ng/mL
same,concentration at 1.5 hr,[4],224 ng/mL
same,concentration at 1.5 hr,[5],228 ng/mL
same,concentration at 1.5 h,[6],290 ng/mL
same,concentration at 2 h,[1],341 ng/mL
same,concentration at 2 h,[2],294 ng/mL
same,concentration at 2 hr,[3],292 ng/mL
same,concentration at 2 hr,[4],251 ng/mL
same,concentration at 2 hr,[5],271 ng/mL
same,concentration at 2 h,[6],320 ng/mL
same,concentration at 3 h,[1],355 ng/mL
same,concentration at 3 h,[2],315 ng/mL
same,concentration at 3 hr,[3],314 ng/mL
same,concentration at 3 hr,[4],276 ng/mL
same,concentration at 3 hr,[5],307 ng/mL
same,concentration at 3 h,[6],324 ng/mL
same,concentration at 4 h,[1],361 ng/mL
same,concentration at 4 hr,[2],328 ng/mL
same,concentration at 4 hr,[3],325 ng/mL
same,concentration at 4 hr,[4],293 ng/mL
same,concentration at 4 hr,[5],304 ng/mL
same,concentration at 4 h,[6],358 ng/mL
same,concentration at 6 h,[1],322 ng/mL
same,concentration at 6 hr,[2],292 ng/mL
same,concentration at 6 hr,[3],292 ng/mL
same,concentration at 6 hr,[4],252 ng/mL
same,concentration at 6 hr,[5],285 ng/mL
same,concentration at 6 h,[6],311 ng/mL
same,concentration at 8 h,[1],337 ng/mL
same,concentration at 8 h,[2],300 ng/mL
same,concentration at 8 hr,[3],292 ng/mL
same,concentration at 8 hr,[4],275 ng/mL
same,concentration at 8 hr,[5],277 ng/mL
same,concentration at 8 hr,[6],330 ng/mL
same,concentration at 9 h,"intravenous, 180 mg, 9 hr, read-out: Plasma concentration, Maximum",364 ng/mL
same,concentration at 9 h,"intravenous, 180 mg, 9 hr, read-out: Plasma concentration, Mean",325 ng/mL
same,concentration at 9 hr,"intravenous, 180 mg, 9 hr, read-out: Plasma concentration, Median",316 ng/mL
same,concentration at 9 hr,"intravenous, 180 mg, 9 hr, read-out: Plasma concentration, Minimum",285 ng/mL
same,concentration at 9 hr,"intravenous, 180 mg, 9 hr, read-out: Plasma concentration, Q1",311 ng/mL
same,concentration at 9 hr,"intravenous, 180 mg, 9 hr, read-out: Plasma concentration, Q3",358 ng/mL
same,concentration at 0.5 h,"intravenous, 240 mg, 0.5 hr, read-out: Plasma concentration, Mean",292 ng/mL
same,concentration at 0.5 hr,"intravenous, 240 mg, 0.5 hr, read-out: Plasma concentration, Minimum",228 ng/mL
same,concentration at 0.5 hr,"intravenous, 240 mg, 0.5 hr, read-out: Plasma concentration, Q1",230 ng/mL
same,concentration at 1 h,[7],345 ng/mL
same,concentration at 1 hr,[8],265 ng/mL
same,concentration at 1 hr,[9],286 ng/mL
same,concentration at 1.5 h,[7],388 ng/mL
same,concentration at 1.5 hr,[8],315 ng/mL
same,concentration at 1.5 hr,[9],333 ng/mL
same,concentration at 2 h,[7],403 ng/mL
same,concentration at 2 hr,[8],337 ng/mL
same,concentration at 2 hr,[9],349 ng/mL
same,concentration at 3 h,[7],456 ng/mL
same,concentration at 3 hr,[8],393 ng/mL
same,concentration at 3 hr,[9],400 ng/mL
same,concentration at 4 h,[7],493 ng/mL
same,concentration at 4 hr,[8],388 ng/mL
same,concentration at 4 hr,[9],423 ng/mL
same,concentration at 6 h,[7],428 ng/mL
same,concentration at 6 hr,[8],335 ng/mL
same,concentration at 6 hr,[9],366 ng/mL
same,concentration at 8 h,[7],474 ng/mL
same,concentration at 8 h,[8],393 ng/mL
same,concentration at 8 hr,[9],409 ng/mL
same,concentration at 9 h,"intravenous, 240 mg, 9 hr, read-out: Plasma concentration, Mean",497 ng/mL
same,concentration at 9 hr,"intravenous, 240 mg, 9 hr, read-out: Plasma concentration, Minimum",417 ng/mL
same,concentration at 9 hr,"intravenous, 240 mg, 9 hr, read-out: Plasma concentration, Q1",452 ng/mL
same,AUC,"iv, 7 mg, 7 mg single IV infusion, healthy subjects, read-out: AUC24 Geo Mean",140 ng·h/mL
same,AUC,"iv, 7 mg, 7 mg single IV infusion, healthy subjects, read-out: AUC24 Mean",142 ng·h/mL
same,AUC,"iv, 7 mg, 7 mg single IV infusion, healthy subjects, read-out: AUC24 Median",142 ng·h/mL
same,AUC(0-inf),"iv, 7 mg, 7 mg single IV infusion, healthy subjects, read-out: AUCinf Geo Mean",142 ng·h/mL
same,AUC(0-inf),"iv, 7 mg, 7 mg single IV infusion, healthy subjects, read-out: AUCinf Mean",143 ng·h/mL
same,AUC(0-inf),"iv, 7 mg, 7 mg single IV infusion, healthy subjects, read-out: AUCinf Median",146 ng·h/mL
same,AUC(0-t),"iv, 7 mg, 7 mg single IV infusion, healthy subjects, read-out: AUClast Geo Mean",138 ng·h/mL
same,AUC(0-t),"iv, 7 mg, 7 mg single IV infusion, healthy subjects, read-out: AUClast Mean",140 ng·h/mL
same,AUC(0-t),"iv, 7 mg, 7 mg single IV infusion, healthy subjects, read-out: AUClast Median",142 ng·h/mL
same,clearance,"iv, 7 mg, 7 mg single IV infusion, healthy subjects, read-out: CL Mean (converted)",833 mL/min
same,concentration at 9 h,"iv, 7 mg, 7 mg single IV infusion, healthy subjects, read-out: Ceoi Geo Mean",13.4 ng/mL
same,concentration at 9 h,"iv, 7 mg, 7 mg single IV infusion, healthy subjects, read-out: Ceoi Mean",13.5 ng/mL
same,concentration at 9 h,"iv, 7 mg, 7 mg single IV infusion, healthy subjects, read-out: Ceoi Median",13.9 ng/mL
same,Cmax,"iv, 7 mg, 7 mg single IV infusion, healthy subjects, read-out: Cmax Geo Mean",16.7 ng/mL
same,Cmax,"iv, 7 mg, 7 mg single IV infusion, healthy subjects, read-out: Cmax Mean",16.9 ng/mL
same,Cmax,"iv, 7 mg, 7 mg single IV infusion, healthy subjects, read-out: Cmax Median",16.5 ng/mL
same,Vd,"iv, 7 mg, 7 mg single IV infusion, healthy subjects, read-out: Vss Mean",82.9 L
same,Vd,"iv, 7 mg, 7 mg single IV infusion, healthy subjects, read-out: Vz Mean",292 L
same,Vd,"iv, 7 mg, 7 mg single IV infusion, healthy subjects, read-out: Vz Median",303 L
same,Tmax,"iv, 7 mg, 7 mg single IV infusion, healthy subjects, read-out: tmax Mean",3 h
same,Tmax,"iv, 7 mg, 7 mg single IV infusion, healthy subjects, read-out: tmax Median",3 h
same,AUC,"iv, 14 mg, 14 mg single IV infusion, healthy subjects, read-out: AUC24 Geo Mean",323 ng·h/mL
same,AUC,"iv, 14 mg, 14 mg single IV infusion, healthy subjects, read-out: AUC24 Mean",326 ng·h/mL
same,AUC,"iv, 14 mg, 14 mg single IV infusion, healthy subjects, read-out: AUC24 Median",322 ng·h/mL
same,AUC(0-inf),"iv, 14 mg, 14 mg single IV infusion, healthy subjects, read-out: AUCinf Geo Mean",328 ng·h/mL
same,AUC(0-inf),"iv, 14 mg, 14 mg single IV infusion, healthy subjects, read-out: AUCinf Mean",331 ng·h/mL
